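Assay format: 96-well plates, 48-hour exposure. GI50 = concentration required for 50% inhibition of growth.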 Calls of active or inactive are those of the source. Cut-off read from the data, not from the text of the source: active = GI50 up to about 1.1 µM and inactive = higher.
What was measured:
Experiment in all cases: DTP human tumour cell line panel, 48 h
HCT-116 = system: HCT-116
OVCAR-3 = system: OVCAR-3
OVCAR-5 = system: OVCAR-5
TK-10 = system: TK-10
RXF 393 = system: RXF 393
SW-620 = system: SW-620
K562 = system: K562
DMS-114 = system: DMS-114
A498 = system: A498
HT-29 = system: HT-29
U-251 = system: U-251
NCI-H460 = system: NCI-H460
SK-MEL-28 = system: SK-MEL-28
NCI-H522 = system: NCI-H522
M14 = system: M14
NCI-H226 = system: NCI-H226
SN12C = system: SN12C
PC-3 = system: PC-3
T47D = system: T47D
MDA-N = system: MDA-N

Structure (SMILES) | GI50 (HCT-116) | GI50 (OVCAR-3) | GI50 (OVCAR-5) | GI50 (TK-10) | GI50 (RXF 393) | GI50 (SW-620) | GI50 (K562) | GI50 (DMS-114) | GI50 (A498) | GI50 (HT-29) | GI50 (U-251) | GI50 (NCI-H460) | GI50 (SK-MEL-28) | GI50 (NCI-H522) | GI50 (M14) | GI50 (NCI-H226) | GI50 (SN12C) | GI50 (PC-3) | GI50 (T47D) | GI50 (MDA-N)
CC(c1cccc2ccccc12)/[N+]([O-])=C/c1ccccc1 (stereo unspecified) | > 100 µM (inactive) | > 100 µM (inactive) | > 100 µM (inactive) | > 100 µM (inactive) | > 100 µM (inactive) | > 100 µM (inactive) | > 100 µM (inactive) | > 100 µM (inactive) | > 100 µM (inactive) | > 100 µM (inactive) | > 100 µM (inactive) | > 100 µM (inactive) | > 100 µM (inactive) | 78.7 µM (inactive) |  |  |  |  |  | 
Nc1c([N+](=O)[O-])nc(Cl)c2nncn12 | > 45 µM (inactive) | > 100 µM (inactive) | > 100 µM (inactive) | > 100 µM (inactive) | > 100 µM (inactive) | > 100 µM (inactive) | > 72.4 µM (inactive) | > 42 µM (inactive) | > 100 µM (inactive) | 96.8 µM (inactive) | > 71.9 µM (inactive) | > 56.6 µM (inactive) | > 100 µM (inactive) | > 74.6 µM (inactive) | > 100 µM (inactive) | > 100 µM (inactive) | > 100 µM (inactive) |  |  | 
COC(=O)[C@@H]1Cc2c([nH]c3ccccc23)[C@H](c2ccccc2)N1 | 29.4 µM (inactive) | 31.6 µM (inactive) | > 100 µM (inactive) | 33 µM (inactive) |  | 35.8 µM (inactive) | 45.2 µM (inactive) | 32.2 µM (inactive) | 20.9 µM (inactive) | 49.3 µM (inactive) | 47.8 µM (inactive) | 34.5 µM (inactive) | 85.1 µM (inactive) | 21.7 µM (inactive) | 25.6 µM (inactive) | 71.8 µM (inactive) | 28.2 µM (inactive) |  |  | 
Clc1ccc(C2SCc3nc4ccccc4n32)cc1Cl (stereo unspecified) | 13.2 µM (inactive) | 10.5 µM (inactive) | 10.5 µM (inactive) | 13 µM (inactive) | 4.2 µM (inactive) | 15.3 µM (inactive) | 8.34 µM (inactive) | 14.8 µM (inactive) |  | 15.1 µM (inactive) | 16 µM (inactive) | 13.5 µM (inactive) | 12.5 µM (inactive) | 11.5 µM (inactive) | 13.2 µM (inactive) | 25.2 µM (inactive) | 12.6 µM (inactive) |  |  | 
CN1COc2c(n(C)c(=O)[nH]c2=O)C1 | 57.5 µM (inactive) | > 100 µM (inactive) | > 100 µM (inactive) | > 100 µM (inactive) | > 66.7 µM (inactive) | 38.6 µM (inactive) | > 100 µM (inactive) | > 61.2 µM (inactive) | > 100 µM (inactive) | > 100 µM (inactive) | > 100 µM (inactive) | > 100 µM (inactive) | > 100 µM (inactive) | > 100 µM (inactive) | > 100 µM (inactive) | > 100 µM (inactive) | > 100 µM (inactive) |  |  | 
COc1ccc2nc(NC(=O)C(=O)C(C#N)c3ccc(Cl)c(Cl)c3)sc2c1 (stereo unspecified) | 62.4 µM (inactive) | > 100 µM (inactive) | > 100 µM (inactive) | > 100 µM (inactive) | 52.2 µM (inactive) | > 100 µM (inactive) | > 100 µM (inactive) | 78.9 µM (inactive) | > 100 µM (inactive) | > 100 µM (inactive) | > 100 µM (inactive) | 84.7 µM (inactive) | > 100 µM (inactive) | 36.9 µM (inactive) | > 100 µM (inactive) | > 100 µM (inactive) | > 100 µM (inactive) |  |  | 
O=C(c1ccc(O)cc1)C1c2c3c(cc(O)c2C(c2ccc(O)cc2)C1c1cc(O)cc(O)c1)OC(c1ccc(O)cc1)C3c1cc2c(cc1O)OC(c1ccc(O)cc1)C2c1cc(O)cc(O)c1 (stereo unspecified) | > 12.5 µM (inactive) | > 12.5 µM (inactive) | > 12.5 µM (inactive) | > 12.5 µM (inactive) |  | > 12.5 µM (inactive) | > 12.5 µM (inactive) | > 12.5 µM (inactive) | > 12.5 µM (inactive) |  | > 12.5 µM (inactive) | > 12.5 µM (inactive) | > 12.5 µM (inactive) | > 12.5 µM (inactive) | > 12.5 µM (inactive) | > 12.5 µM (inactive) | > 12.5 µM (inactive) |  |  | 
CCCc1ccc(/N=C\c2cc(OC)c(OC)c(OC)c2)cc1 | > 63.4 µM (inactive) | > 100 µM (inactive) | > 100 µM (inactive) | > 100 µM (inactive) | > 100 µM (inactive) | > 100 µM (inactive) | 36 µM (inactive) | 18.7 µM (inactive) | > 100 µM (inactive) | > 87.7 µM (inactive) | > 100 µM (inactive) | > 100 µM (inactive) | > 100 µM (inactive) | > 59.2 µM (inactive) | > 100 µM (inactive) | > 100 µM (inactive) | > 100 µM (inactive) |  |  | 
Cc1cc(Cl)ccc1NC(=O)C(=O)C(C(=O)c1ccccc1)C1OC(=O)c2ccccc21 (stereo unspecified) | > 100 µM (inactive) |  | > 100 µM (inactive) | > 100 µM (inactive) | > 100 µM (inactive) | > 100 µM (inactive) | > 100 µM (inactive) | > 100 µM (inactive) | > 100 µM (inactive) | > 100 µM (inactive) | > 100 µM (inactive) | > 100 µM (inactive) | > 100 µM (inactive) | > 100 µM (inactive) | > 100 µM (inactive) | > 100 µM (inactive) | > 100 µM (inactive) |  |  | 
O=C(/N=N/C(=O)OCc1ccccc1)OCc1ccccc1 | > 100 µM (inactive) | 58.2 µM (inactive) | > 100 µM (inactive) | > 100 µM (inactive) | > 100 µM (inactive) | > 100 µM (inactive) | 63.5 µM (inactive) | 34.4 µM (inactive) |  | > 100 µM (inactive) | 83.8 µM (inactive) | > 100 µM (inactive) |  |  | > 100 µM (inactive) |  | > 100 µM (inactive) |  |  | 
C=C1C(=O)OC2C1C(OC(=O)/C(C)=C\C)CC1(CO1)C1C(O)C=C(C)C21O (stereo unspecified) | 1.53 µM (inactive) | 3.77 µM (inactive) | 19.7 µM (inactive) | 3.44 µM (inactive) | 2.73 µM (inactive) | 1.58 µM (inactive) | 4.72 µM (inactive) | 3.19 µM (inactive) | 5.02 µM (inactive) | 13 µM (inactive) | 12.2 µM (inactive) | 14.3 µM (inactive) | 2.93 µM (inactive) | 0.942 µM (active) | 2.63 µM (inactive) |  | 3.27 µM (inactive) |  |  | 
CC(C)=CCC/C(C)=C/CC/C(C)=C/C1CCC(=O)C1(C)C (stereo unspecified) | 17 µM (inactive) | 17.1 µM (inactive) | 19.1 µM (inactive) | 39.4 µM (inactive) | 22.1 µM (inactive) |  | 19.8 µM (inactive) | 14.5 µM (inactive) | 18.5 µM (inactive) | 17.5 µM (inactive) | 18.1 µM (inactive) | 17.5 µM (inactive) | 22.1 µM (inactive) | 15.2 µM (inactive) | 19.5 µM (inactive) | 14.7 µM (inactive) | 16.2 µM (inactive) |  |  | 
CSc1nnc(CCC(=O)Nc2c(C)cccc2C)o1 | > 100 µM (inactive) | > 100 µM (inactive) | > 100 µM (inactive) | > 100 µM (inactive) | > 100 µM (inactive) | > 100 µM (inactive) | > 100 µM (inactive) | > 100 µM (inactive) | > 100 µM (inactive) | > 100 µM (inactive) | > 100 µM (inactive) | > 100 µM (inactive) | > 100 µM (inactive) | > 100 µM (inactive) | > 100 µM (inactive) | > 100 µM (inactive) | > 100 µM (inactive) |  |  | 
O=C(NCC1Nc2ccncc2S(=O)(=O)N1)c1ccc(Br)cc1 (stereo unspecified) | 43.9 µM (inactive) | 30.8 µM (inactive) | > 100 µM (inactive) | > 100 µM (inactive) | > 100 µM (inactive) | 41.2 µM (inactive) | 33.2 µM (inactive) |  | > 100 µM (inactive) | > 100 µM (inactive) | 30.4 µM (inactive) | > 100 µM (inactive) | 92.5 µM (inactive) | 28.2 µM (inactive) | 19.3 µM (inactive) | > 100 µM (inactive) | > 100 µM (inactive) | 17.7 µM (inactive) | > 100 µM (inactive) | 23.7 µM (inactive)

From ChEMBL document CHEMBL1201862, “PubChem BioAssay data set” (2004)
